Reference: publication PMC3843973 (Journal of medicinal chemistry, 2013)
Where two headings read alike, the source gives them in different places.

Legend:
[1] = system: BALB/cJ male mice; settings: mouse
[2] = target: human α4β2-nAChRs (Homo sapiens, UniProt P17787+P43681); assay type: cell-based; settings: mixture of HS and LS α4β2-nAChRs; 10 min preincubation
[3] = target: rat α3β4 nAChR (Rattus norvegicus, UniProt P04757+P12392); settings: cited from earlier work
[4] = bidirectional Caco-2 cell permeability assay; assay type: in vitro ADME; settings: human, Caco-2, pH 7.4
[5] = system: Caco-2 cells; assay: bidirectional Caco-2 cell permeability assay; assay type: in vitro ADME; settings: Caco-2 bidirectional
[6] = chemical stability on storage; assay type: physicochemical; settings: stored at room temperature for several months
[7] = system: strains TA98, TA100, TA1535, and TA1537; assay: bacteria reversion mutation assay; settings: strain TA1537 in the presence of S9 fraction, 50 and 100 μM
[8] = target: rat α2β2 nAChR (Rattus norvegicus, UniProt P12389+P12390); settings: read-out: Ki α2β2; cited from earlier work
[9] = target: rat α2β4 nAChR (Rattus norvegicus, UniProt P12389+P12392); settings: read-out: Ki α2β4; cited from earlier work
[10] = target: rat α3β2 nAChR (Rattus norvegicus, UniProt P04757+P12390); settings: read-out: Ki α3β2; cited from earlier work
[11] = target: rat α4β2 nAChR (Rattus norvegicus, UniProt P09483+P12390); settings: read-out: Ki α4β2; cited from earlier work
[12] = target: α4β2*-nAChR, prepared from rat forebrain (Rattus norvegicus, UniProt P09483+P12390); settings: read-out: Ki α4β2*; cited from earlier work
[13] = target: rat α4β4 nAChR (Rattus norvegicus, UniProt P09483+P12392); settings: read-out: Ki α4β4; cited from earlier work
Chain of rat α4β4 nAChR (P12392 21-495): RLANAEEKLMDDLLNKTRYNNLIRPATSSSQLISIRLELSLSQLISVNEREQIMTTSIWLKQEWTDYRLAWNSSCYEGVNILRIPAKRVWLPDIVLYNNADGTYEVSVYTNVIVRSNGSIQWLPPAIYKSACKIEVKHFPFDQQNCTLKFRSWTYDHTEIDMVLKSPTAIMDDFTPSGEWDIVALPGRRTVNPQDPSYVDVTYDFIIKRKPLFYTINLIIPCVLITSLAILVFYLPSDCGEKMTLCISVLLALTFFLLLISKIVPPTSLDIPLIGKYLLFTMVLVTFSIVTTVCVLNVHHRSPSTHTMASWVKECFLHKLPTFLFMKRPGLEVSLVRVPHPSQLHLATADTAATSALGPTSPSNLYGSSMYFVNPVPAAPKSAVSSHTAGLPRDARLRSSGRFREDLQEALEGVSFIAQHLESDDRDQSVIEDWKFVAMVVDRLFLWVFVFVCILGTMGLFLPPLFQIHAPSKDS
Chain of rat α4β4 nAChR (P09483 31-630): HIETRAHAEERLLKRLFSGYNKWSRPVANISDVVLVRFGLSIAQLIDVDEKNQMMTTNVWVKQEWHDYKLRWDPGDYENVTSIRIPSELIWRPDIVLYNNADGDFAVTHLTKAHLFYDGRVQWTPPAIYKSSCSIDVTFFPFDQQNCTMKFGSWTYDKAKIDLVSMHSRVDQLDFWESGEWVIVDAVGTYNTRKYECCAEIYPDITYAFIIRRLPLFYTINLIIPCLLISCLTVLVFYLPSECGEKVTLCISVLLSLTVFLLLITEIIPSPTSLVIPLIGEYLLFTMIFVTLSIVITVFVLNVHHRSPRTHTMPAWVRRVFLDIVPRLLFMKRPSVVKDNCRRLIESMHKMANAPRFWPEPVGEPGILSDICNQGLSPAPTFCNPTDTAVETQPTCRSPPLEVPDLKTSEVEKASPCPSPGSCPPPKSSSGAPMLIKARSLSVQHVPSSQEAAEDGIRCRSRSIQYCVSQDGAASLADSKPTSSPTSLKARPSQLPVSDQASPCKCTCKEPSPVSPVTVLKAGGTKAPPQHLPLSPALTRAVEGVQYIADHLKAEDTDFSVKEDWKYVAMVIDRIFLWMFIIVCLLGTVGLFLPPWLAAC

Chain of rat α3β4 nAChR (P12392 21-495): as the sequence (P12392 21-495) above
Chain of rat α3β4 nAChR (P04757 26-499): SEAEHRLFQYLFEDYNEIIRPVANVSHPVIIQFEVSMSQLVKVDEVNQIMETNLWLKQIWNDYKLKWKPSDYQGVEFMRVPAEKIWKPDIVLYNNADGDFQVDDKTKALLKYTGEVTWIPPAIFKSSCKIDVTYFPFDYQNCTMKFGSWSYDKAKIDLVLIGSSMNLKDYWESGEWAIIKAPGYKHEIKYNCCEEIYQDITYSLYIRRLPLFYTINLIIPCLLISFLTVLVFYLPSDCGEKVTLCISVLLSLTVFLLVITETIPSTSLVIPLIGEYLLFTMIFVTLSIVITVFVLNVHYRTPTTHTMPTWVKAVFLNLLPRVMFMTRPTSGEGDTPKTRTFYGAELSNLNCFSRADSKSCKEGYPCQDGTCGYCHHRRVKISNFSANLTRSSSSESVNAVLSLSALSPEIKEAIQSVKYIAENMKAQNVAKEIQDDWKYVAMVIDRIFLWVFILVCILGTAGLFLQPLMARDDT
Chain of rat α3β2 nAChR (P12390 25-500): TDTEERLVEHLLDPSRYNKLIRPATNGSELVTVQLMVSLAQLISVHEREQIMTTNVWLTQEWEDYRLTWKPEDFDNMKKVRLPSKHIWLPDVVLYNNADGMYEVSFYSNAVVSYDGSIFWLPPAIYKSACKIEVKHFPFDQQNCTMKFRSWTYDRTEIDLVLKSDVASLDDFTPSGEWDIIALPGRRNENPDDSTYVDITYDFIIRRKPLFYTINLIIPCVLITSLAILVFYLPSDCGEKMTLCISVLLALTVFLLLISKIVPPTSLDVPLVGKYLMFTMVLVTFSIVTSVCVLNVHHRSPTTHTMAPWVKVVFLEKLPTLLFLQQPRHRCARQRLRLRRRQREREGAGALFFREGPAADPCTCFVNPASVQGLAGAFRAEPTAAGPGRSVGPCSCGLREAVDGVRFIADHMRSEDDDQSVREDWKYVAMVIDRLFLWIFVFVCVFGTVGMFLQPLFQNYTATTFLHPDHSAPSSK
Chain of rat α3β2 nAChR (P04757 26-499): as the sequence (P04757 26-499) above
Chain of rat α4β2 nAChR (P12390 25-500): as the sequence (P12390 25-500) above
Chain of rat α4β2 nAChR (P09483 31-630): as the sequence (P09483 31-630) above
Chain of human α4β2-nAChRs (P43681 29-627 limits assumed): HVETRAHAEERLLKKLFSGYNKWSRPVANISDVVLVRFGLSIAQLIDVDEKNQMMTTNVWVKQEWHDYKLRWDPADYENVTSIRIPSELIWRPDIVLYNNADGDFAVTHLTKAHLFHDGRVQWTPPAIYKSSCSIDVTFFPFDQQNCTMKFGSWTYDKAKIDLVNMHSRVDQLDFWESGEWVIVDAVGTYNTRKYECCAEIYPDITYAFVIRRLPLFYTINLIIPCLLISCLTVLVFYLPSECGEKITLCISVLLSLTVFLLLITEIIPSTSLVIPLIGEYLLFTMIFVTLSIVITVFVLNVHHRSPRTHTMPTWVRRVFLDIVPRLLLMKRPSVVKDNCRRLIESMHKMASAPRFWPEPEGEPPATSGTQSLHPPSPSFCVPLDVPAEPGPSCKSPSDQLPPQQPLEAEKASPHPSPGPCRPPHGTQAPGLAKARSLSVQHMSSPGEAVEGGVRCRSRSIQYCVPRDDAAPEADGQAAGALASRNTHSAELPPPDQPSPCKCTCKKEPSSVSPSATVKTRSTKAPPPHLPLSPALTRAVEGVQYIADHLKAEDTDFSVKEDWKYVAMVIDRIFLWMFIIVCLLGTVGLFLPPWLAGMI
Chain of human α4β2-nAChRs (P17787 26-502): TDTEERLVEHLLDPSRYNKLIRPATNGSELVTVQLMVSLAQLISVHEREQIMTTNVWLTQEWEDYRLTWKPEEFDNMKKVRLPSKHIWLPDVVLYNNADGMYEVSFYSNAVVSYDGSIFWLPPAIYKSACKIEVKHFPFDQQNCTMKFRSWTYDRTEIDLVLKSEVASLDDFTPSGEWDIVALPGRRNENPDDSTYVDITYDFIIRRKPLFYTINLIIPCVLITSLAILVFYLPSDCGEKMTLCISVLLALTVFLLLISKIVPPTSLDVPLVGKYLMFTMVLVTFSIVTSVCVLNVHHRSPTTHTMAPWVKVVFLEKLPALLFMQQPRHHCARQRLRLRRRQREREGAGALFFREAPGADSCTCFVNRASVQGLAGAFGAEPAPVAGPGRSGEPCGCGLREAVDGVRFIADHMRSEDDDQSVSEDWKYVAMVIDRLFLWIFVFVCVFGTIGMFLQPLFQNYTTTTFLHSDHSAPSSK
Chain of rat α2β2 nAChR (P12389 28-511): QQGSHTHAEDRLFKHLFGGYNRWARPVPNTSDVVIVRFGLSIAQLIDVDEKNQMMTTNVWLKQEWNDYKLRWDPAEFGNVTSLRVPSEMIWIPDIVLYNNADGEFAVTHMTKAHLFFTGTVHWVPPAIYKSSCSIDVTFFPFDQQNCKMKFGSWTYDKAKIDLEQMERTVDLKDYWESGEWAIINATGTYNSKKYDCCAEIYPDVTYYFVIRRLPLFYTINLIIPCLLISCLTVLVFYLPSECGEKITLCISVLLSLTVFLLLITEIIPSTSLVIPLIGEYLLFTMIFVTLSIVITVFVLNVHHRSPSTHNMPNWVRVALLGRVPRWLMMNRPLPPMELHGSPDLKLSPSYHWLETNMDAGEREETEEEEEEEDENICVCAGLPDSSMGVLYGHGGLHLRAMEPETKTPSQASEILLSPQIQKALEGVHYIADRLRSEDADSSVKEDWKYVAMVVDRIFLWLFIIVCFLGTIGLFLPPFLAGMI
Chain of rat α2β2 nAChR (P12390 25-500): as the sequence (P12390 25-500) above
Chain of rat α2β4 nAChR (P12389 28-511): as the sequence (P12389 28-511) above
Chain of rat α2β4 nAChR (P12392 21-495): as the sequence (P12392 21-495) above
Chain of α4β2*-nAChR, prepared from rat forebrain (P09483 31-630): as the sequence (P09483 31-630) above
Chain of α4β2*-nAChR, prepared from rat forebrain (P12390 25-500): as the sequence (P12390 25-500) above

Question: With `COCC[C@H]1C[C@@H]1c1cncc(OC[C@H]2CCNC2)c1.O=C(O)C(F)(F)F` [Compound 30, 3-[(3(S)-Pyrrolidinyl)methoxy]-5-[(1S,2R)-2-(2-methoxyethyl)cyclopropyl]pyridine Trifluoroacetate] as the molecule, how does the abnormal behavioral effects ([1]; intraperitoneal, 5 mg/kg) read?
Answer: Its abnormal behavioral effects is “sedation and tremor”.

Question: With `CN[C@H]1CC[C@@H](c2ccc(Cl)c(Cl)c2)c2ccccc21` [sertraline, reference compound] as the molecule, how does the “effect on immobility (positive control)” value ([1]; 20 mg/kg) read?
Answer: The value was “expected decrease in immobility”.

Question: Which “Inactivation α4β2 Efficacy” value [2] does the source give for `COCC[C@H]1C[C@@H]1c1cncc(OC[C@@H]2CCN2)c1` [Compound 4] here?
Answer: Its value is 71 ± 5.5%.

Question: And the “Ki α3β4” value [3]?
Answer: Its value is “NA (not active, defined as < 50% binding in the primary assay at 10 μM)”.

Question: What does the source list for `COCC[C@H]1C[C@@H]1c1cncc(OC[C@@H]2CCCN2C)c1.O=C(O)C(F)(F)F` [Compound 26, 3-[(1-Methyl-2(S)-pyrrolidinyl)methoxy]-5-[(1S,2R)-2-(2-methoxyethyl)cyclopropyl]pyridine Trifluoroacetate]?
Answer: efflux ratio [4]: 0.2; permeability class [5]: high permeability; chemical stability [6]: little or no sign of decomposition; minimal dose with significant reduction in immobility ([1]; in vivo, ip): 1 mg/kg; minimal dose with significant reduction in immobility ([1]; in vivo, po): 1 mg/kg; Ames test mutagenic potential [7]: positive significance

Question: Which “effect in the forced swim test” value ([1]; in vivo) does the source give for `COCC[C@H]1C[C@@H]1c1cncc(OC[C@@H]2CCCN2)c1.O=C(O)C(F)(F)F` [Compound 24, 3-[(2(S)-Pyrrolidinyl)methoxy]-5-[(1S,2R)-2-(2-methoxyethyl)cyclopropyl]pyridine Trifluoroacetate] here?
Answer: The value was “no significant effects”.

Question: With `OCCCCC#Cc1cncc(OC[C@@H]2CCN2)c1` [saz-A, sazetidine-A] as the molecule, how does the Ki [8] read?
Answer: Its Ki is 0.087 nM.

Question: What about the Ki [9] of the same molecule?
Answer: Its Ki is 210 nM.

Question: What about the Ki [10] of the same molecule?
Answer: Its Ki is 0.38 nM.

Question: What about the Ki ([3]; read-out: Ki α3β4) of the same molecule?
Answer: The Ki was 1900 nM.

Question: What about the Ki [11] of the same molecule?
Answer: The Ki was 0.062 nM.

Question: What about the Ki [12] of the same molecule?
Answer: Its Ki is 0.17 nM.

Question: And the Ki [13]?
Answer: Its Ki is 52 nM.
